Measurements published in publication PMC5882934, “Acute metabolic actions of the major polyphenols in chamomile: an in vitro mechanistic study on their potential to attenuate postprandial hyperglycaemia” (Scientific Reports, 2018).
In brackets after ≈: the same amount, converted by molar mass. Like-named read-outs stand apart in the source and are kept apart here.

What was measured:
[1] = molecular target: T1, GLUT2 (Homo sapiens, UniProt P11168); assay: D-[U-14C]-glucose transport across Caco-2/TC7 monolayers under Na+-free conditions (only GLUT2 active); assay type: cell-based; conditions: for apparent increase in inhibitory activity under Na+-free conditions: versus Na+ present
T1 construct: endogenous in cells; host or cells: Caco-2/TC7
T1 sequence (P11168 1-524): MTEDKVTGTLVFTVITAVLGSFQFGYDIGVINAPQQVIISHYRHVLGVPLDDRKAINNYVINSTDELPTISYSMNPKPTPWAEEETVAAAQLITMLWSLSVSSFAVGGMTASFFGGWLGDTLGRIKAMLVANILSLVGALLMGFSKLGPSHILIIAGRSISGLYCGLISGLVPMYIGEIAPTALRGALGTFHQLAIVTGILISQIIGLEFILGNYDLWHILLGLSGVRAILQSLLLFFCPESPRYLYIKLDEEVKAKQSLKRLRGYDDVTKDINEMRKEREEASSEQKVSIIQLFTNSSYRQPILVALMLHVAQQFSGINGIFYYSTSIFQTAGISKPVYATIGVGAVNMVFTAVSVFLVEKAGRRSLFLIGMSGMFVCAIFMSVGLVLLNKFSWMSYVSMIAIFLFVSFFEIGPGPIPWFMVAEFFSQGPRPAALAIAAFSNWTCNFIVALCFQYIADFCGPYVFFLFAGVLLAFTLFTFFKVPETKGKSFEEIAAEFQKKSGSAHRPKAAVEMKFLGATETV
Excerpt: To dissect the mechanism of inhibition of glucose transport, we conducted D-[U-^14C]-glucose transport experiments under Na^+-free conditions where only GLUT2, and not SGLT1, is active. […] When tested in combination under Na^+-free conditions, apigenin 7-O-glucoside and apigenin (Fig. 6C-3) were responsible for ~80% of the inhibitory activity observed by the whole ChE (p < 0.05) (Fig. 6C-4).
Since the main inhibition we found was on GLUT2, we investigated the binding affinities of apigenin and apigenin 7-O-glucoside. […] This was also confirmed by functional assays where the rate of D-[U-^14C]-glucose transport under Na^+-free conditions was the same from apical to basolateral compartments and vice versa (Fig. 7B). Inhibition constants for the exofacial glucose transporter inhibitor 4,6-O-ethylidene glucose and the endofacial glucose transporter inhibitor cytochalasin B on basolateral to apical D-[U-^14C]-glucose transport were compared to those for apigenin and apigenin 7-O-glucoside (Fig. 7C–E). […] This comparison is made assuming that the position of GLUT2 is the same when facing the apical and the intracellular space, which seems to hold based on the rate of D-[U-^14C]-glucose transport across the monolayers in both directions.
(§1) Caco-2/TC7 cells were cultured and transport experiments performed as fully described before.

[2] = molecular target: T2, human α-amylase (Homo sapiens, UniProt P0DUB6); assay: human α-amylase inhibition assay; assay type: biochemical; conditions: for maximum inhibition of human α-amylase: individual (poly)phenol, maximum value of dose response, p < 0.05; for Ki: Dixon plot, intercept = -Ki
T2 sequence (P0DUB6 16-511): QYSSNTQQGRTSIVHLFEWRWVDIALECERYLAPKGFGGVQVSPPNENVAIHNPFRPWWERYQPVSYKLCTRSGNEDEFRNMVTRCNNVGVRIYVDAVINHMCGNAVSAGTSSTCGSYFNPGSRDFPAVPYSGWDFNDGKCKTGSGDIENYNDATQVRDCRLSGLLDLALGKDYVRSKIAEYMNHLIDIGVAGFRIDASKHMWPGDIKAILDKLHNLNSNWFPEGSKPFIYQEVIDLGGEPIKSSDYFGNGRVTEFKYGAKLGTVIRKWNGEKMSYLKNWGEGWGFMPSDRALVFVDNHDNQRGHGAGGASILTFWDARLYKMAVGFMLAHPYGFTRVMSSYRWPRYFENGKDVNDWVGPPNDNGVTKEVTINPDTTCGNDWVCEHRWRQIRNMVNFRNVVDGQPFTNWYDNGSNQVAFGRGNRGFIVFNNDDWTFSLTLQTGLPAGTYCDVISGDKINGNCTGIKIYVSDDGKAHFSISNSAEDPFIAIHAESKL
Description: The human α-amylase and rat α-glucosidase inhibition assays were performed under optimised conditions as previously reported[3],[18],[52]. The ChE stock solution was dissolved in DMSO while the individual (poly)phenols were prepared in a water-EtOH solution (50:50, v/v).

[3] = tested on: Caco-2/TC7 cells; assay: D-[U-14C]-glucose transport across Caco-2/TC7 cell monolayers in the presence of Na+; assay type: cell-based; conditions: for effect on D-[U-14C]-glucose transport: data not shown
Excerpt: (§2) Caco-2/TC7 cells transported 0.08 mmol of D-[U-^14C]-glucose from the apical to the basolateral compartment across the cell monolayers in the presence of Na^+, where the sugar transporter Na^+/glucose co-transporter 1 (SGLT1) is active, in addition to the facilitated transporters GLUT2 and GLUT5 (Fig. 6A-1). D-[U-^14C]-sucrose must first be hydrolysed by brush border sucrase and the resulting products, fructose and glucose, are transported into and across the cells.
as §1

[4] = tested on: Caco-2/TC7 cells; assay: D-[U-14C]-sucrose transport across Caco-2/TC7 cell monolayers; assay type: cell-based; conditions: data not shown
Excerpt: as §2, §1

[5] = tested on: Caco-2/TC7 cells; assay: D-[U-14C]-fructose transport across Caco-2/TC7 cell monolayers; assay type: cell-based; conditions: data not shown
Excerpt: as §2, §1

[6] = enzymatic hydrolysis by digestive hydrolytic enzymes (hesperidinase, acetone rat intestinal extract); assay type: in vitro ADME
Description: Supplementary S3. Enzymatic hydrolysis of Kaempferol 3-O-glucoside (positive control) and (E)-MCAG. (A) Kaempferol 3-O-glucoside standard (300 µM). (B) Kaempferol standard (100 uM). (C) Kaempferol 3-O-glucoside hydrolysed with hesperidinase. (D) Kaempferol 3-O-glucoside hydrolysed with acetone rat intestinal extract. (E) Kaempferol 3-O-glucoside hydrolysed with pancreatin. (F) (E)-MCAG (500 µM) hydrolysed with hesperidinase. (G) (E)-MCAG (500 µM) hydrolysed hydrolysed with acetone rat intestinal extract. The enzymatic hydrolysis were conducted with 50 mg/mL of the respective enzyme for 3 h at 37 °C.

[7] = molecular target: T2, human α-amylase; set-up: method as in doi:10.1016/j.jff.2015.10.003; conditions: strong (poly)phenol inhibitors, arbitrarily defined; cited from earlier work
[8] = set-up: method as in PMID 12086760, PMID 12876091; conditions: population with impaired glucose tolerance; cited from earlier work
[9] = tested on: Caco-2/TC7 cells; assay: conversion of apigenin 7-O-glucoside to apigenin by differentiated Caco-2/TC7 cells; assay type: in vitro ADME; conditions: 150 µM, 25 and 60 min
Description: Glycosylated (poly)phenols can be hydrolysed by luminal β-glucosidase enzymes, such as lactase phlorizin hydrolase[19],[20], present in the brush border of the enterocytes, resulting in the release of the aglycone. Therefore, we explored the possibility whether the inhibition observed by apigenin-7-O-glucoside was due to the presence of apigenin after enzymic hydrolysis. Caco-2/TC7 cells were incubated with 150 µM apigenin 7-O-glucoside for 25 and 60 min. In vitro conversion of apigenin 7-O-glucoside to apigenin in Caco2/TC7 cells was negligible (Supplementary S5) confirming that apigenin 7-O-glucoside can interact directly with GLUT2 transporter protein.
Cells were seeded at 2.4 × 10^5 cells/well on 6-well plates (Corning, Appleton Woods, UK) and cultured for 21–23 d at 37 °C as described above. Cells were exposed to 150 μM of apigenin 7-O-glucoside for 25 and 60 min. After the treatment the medium was collected and analysed by HPLC as detailed above.

[10] = molecular target: yeast α-glucosidase; conditions: cited from earlier work
[11] = tested on: rat intestinal α-glucosidase; set-up: method as in PMID 28422509; conditions: p-nitrophenyl-glucopyranoside substrate; cited from earlier work
[12] = solubility limit in enzyme assay; assay type: physicochemical
[13] = tested on: GLUT1; set-up: method as in PMID 26238658; conditions: cited from earlier work
[14] = tested on: GLUT1; set-up: method as in PMID 24932809; conditions: cited from earlier work
[15] = molecular target: maltase-glucoamylase; set-up: method as in PMID 18681440; conditions: cited from earlier work
[16] = molecular target: sucrase-isomaltase; set-up: method as in PMID 18681440; conditions: cited from earlier work

CC1OC[C@H]2O[C@H](O)[C@H](O)[C@@H](O)[C@@H]2O1 (some centres unmarked) [4,6-ethylidine glucose, 4,6-O-ethylidene glucose, reference compound]
fold lower inhibition of transport basolateral to apical versus apical to basolateral ([1]; Na+-free): 3 fold | IC50 ([1]; Na+-free, apical to basolateral, read-out: a → b IC50): 15000 µM

COc1ccc(/C=C/C(=O)O)c(O[C@@H]2O[C@H](CO)[C@@H](O)[C@H](O)[C@H]2O)c1 [(E)-MCAG, (E)−2-β-D-Glucopyranosyloxy-4-methoxycinnamic acid]
maximum inhibition of human α-amylase [2]: ~ 20% | effect on D-[U-14C]-glucose transport [3]: no effect | effect on D-[U-14C]-sucrose transport [4]: no effect | effect on D-[U-14C]-fructose transport [5]: no effect | substrate for rat intestinal enzymes [6]: not a substrate | resistance to digestive hydrolytic enzymes ([6]; 500 µM, 50 mg/mL enzyme, 3 h at 37 °C): resistant

COc1ccc(/C=C\C(=O)O)c(OC2O[C@H](CO)[C@@H](O)[C@H](O)[C@H]2O)c1 (stereo partly drawn) [(Z)-MCAG, (Z)-2-D-Glucopyranosyloxy-4-methoxycinnamic acid]
maximum inhibition of human α-amylase [2]: ~ 25% | effect on D-[U-14C]-glucose transport [3]: no effect | effect on D-[U-14C]-sucrose transport [4]: no effect | effect on D-[U-14C]-fructose transport [5]: no effect

C=C1[C@@H](C)[C@H]2[C@H](Cc3ccccc3)NC(=O)[C@]23OC(=O)/C=C/[C@H](O)CCC[C@@H](C)C/C=C/[C@H]3[C@@H]1O [Cytochalasin B, cytochalasin B, reference compound]
IC50 ([1]; a → b IC50, Na+-free, apical to basolateral): 2.3 µM | IC50 ([1]; b → a IC50, Na+-free, basolateral to apical): 7.6 µM

O=C(O[C@@H]1Cc2c(O)cc(O)cc2O[C@@H]1c1cc(O)c(O)c(O)c1)c1cc(O)c(O)c(O)c1 [EGCG]
IC50 [7]: < 100 µM

C[C@H]1O[C@H](O[C@H]2[C@H](O)[C@@H](O)[C@@H](O[C@H]3[C@H](O)[C@@H](O)C(O)O[C@@H]3CO)O[C@@H]2CO)[C@H](O)[C@@H](O)[C@@H]1N[C@H]1C=C(CO)[C@@H](O)[C@H](O)[C@H]1O (some centres unmarked) [acarbose]
reduction of the risk of cardiovascular events [8]: 49% | reduction of the risk of type 2 diabetes [8]: 25%

O=c1cc(-c2ccc(O)cc2)oc2cc(O[C@@H]3O[C@H](CO)[C@@H](O)[C@H](O)[C@H]3O)cc(O)c12 [apigenin 7-O-glucoside, apigenin-7-O-glucoside]
Ki [2]: 17 ± 4 µM | fold lower inhibition of human α-amylase than apigenin ([2]; in vitro results): ~ 10 fold | fold lower inhibition of transport basolateral to apical versus apical to basolateral ([1]; Na+-free): 3 fold | apparent increase in inhibitory activity under Na+-free conditions [1]: ~ 50% | in vitro conversion to apigenin [9]: negligible | IC50 yeast α-glucosidase [10]: 29.7 mg/L (≈ 68.7 µM) | inhibition of rat intestinal α-glucosidase activity [11]: inhibited

O=c1cc(-c2ccc(O)cc2)oc2cc(O)cc(O)c12 [apigenin]
fold increase in inhibitory activity on human α-amylase versus apigenin 7-O-glucoside [2]: ~ 10 fold | Ki [2]: 146 ± 39 µM | fold higher effect than apigenin 7-O-glucoside at equivalent concentrations ([3]; D-[U-14C]-glucose and D-[U-14C]-sucrose transport, apigenin 50 µM): 3 fold | fold lower inhibition of transport basolateral to apical versus apical to basolateral ([1]; Na+-free): 3 fold | apparent increase in inhibitory activity under Na+-free conditions [1]: ~ 50% | solubility [12]: limited solubility prohibited testing at concentrations >50 µM | IC50 [10]: 22 µM | IC50 yeast α-glucosidase [10]: 25.5 mg/L (≈ 94.4 µM) | inhibition of yeast α-glucosidase ([10]; p-nitrophenyl-glucopyranoside substrate): did not inhibit | GLUT1 expression [13]: lowered | GLUT1 expression [14]: lowered

O=c1ccc2cc(O)c(O)cc2o1 [esculetin]
IC50 [15]: 534 µM | IC50 [16]: 72 µM

O=c1cc(-c2ccc(O)c(O)c2)oc2cc(O)cc(O)c12 [luteolin]
IC50 [7]: < 100 µM

O=c1c(O)c(-c2ccc(O)c(O)c2)oc2cc(O)cc(O)c12 [quercetin]
IC50 [7]: < 100 µM | IC50 [15]: 216 µM | IC50 [16]: 71 µM
